The assay can be described thus: Binding affinity against opioid receptor delta 1 using [3H]naltrindole as radioligand in guinea pig brain membranes.
The compound `c1cc2c(cc1-c1nnn[nH]1)[C@@]13CCCC[C@H]1[C@@H](C2)N(CC1CCC1)CC3` [3-(1'H-Tetrazol-5'-yl)-N-cyclobutylmethylmorphinan] came in with a Ki above 10000 nM.

On to `CN1CC[C@]23CCCC[C@H]2[C@H]1Cc1ccc(-c2nnn[nH]2)cc13` [3-(1'H-Tetrazol-5'-yl)-N-methylmorphinan], for which the inhibition constant (Ki) was above 10000 nM. The same measure for `Nc1ccc2c(c1)[C@@]13CCCC[C@H]1[C@@H](C2=O)N(CC1CCC1)CC3` [3-Amino-10-keto-N-cyclobutylmethylmorphinan]: 600 nM; for `NCc1ccc2c(c1)[C@@]13CCCC[C@H]1[C@@H](C2)N(CC1CCC1)CC3` [3-Aminomethyl-N-cyclobutylmethylmorphinan]: 410 nM. For the compound `CN1CC[C@]23CCCC[C@H]2[C@H]1Cc1ccc(CN)cc13` [3-Aminomethyl-N-methylmorphinan], the affinity, expressed as Ki, was 2500 nM. The same measure for `NC(=O)c1ccc2c(c1)[C@@]13CCCC[C@H]1[C@@H](C2=O)N(CC1CCC1)CC3` [3-Carboxamido-10-keto-N-cyclobutylmethylmorphinan]: 50 nM; for `NC(=O)c1ccc2c(c1)[C@@]13CCCC[C@H]1[C@@H](C2)N(CC1CCC1)CC3` [3-Carboxamido-N-cyclobutylmethylmorphinan]: 4 nM. As for `NC(=O)c1ccc2c(c1)[C@@]13CCCC[C@H]1[C@@H](C2)N(CC1CC1)CC3` [3-Carboxamido-N-cyclopropylmethylmorphinan], the affinity corresponds to a Ki of 1 nM. This Ki is about 4-fold lower than that of the compound before. `CN1CC[C@]23CCCC[C@H]2[C@H]1Cc1ccc(C(N)=O)cc13` [3-Carboxamido-N-methylmorphinan]: affinity was put at a Ki of 13 nM.

For `O=C(O)c1ccc2c(c1)[C@@]13CCCC[C@H]1[C@@H](C2=O)N(CC1CCC1)CC3` [3-Carboxyl-10-keto-N-cyclobutylmethyl morphinan], the inhibition constant Ki is 800 nM. Regarding `N#Cc1ccc2c(c1)[C@@]13CCCC[C@H]1[C@@H](C2=O)N(CC1CCC1)CC3` [3-Cyano-10-keto-N-cyclobutylmethylmorphinan], the inhibition constant (Ki) was above 10000 nM. In the case of `N#Cc1ccc2c(c1)[C@@]13CCCC[C@H]1[C@@H](C2)N(CC1CCC1)CC3` [3-Cyano-N-cyclobutylmethylmorphinan] it was 1900 nM; in that of `CN1CC[C@]23CCCC[C@H]2[C@H]1Cc1ccc(C#N)cc13` [3-Cyano-N-methylmorphinan], above 1000 nM.

Take `O=C1c2ccc(O)cc2[C@@]23CCCC[C@H]2[C@@H]1N(CCF)CC3` [3-Hydroxy-10-keto-N-(2-fluoroethyl)morphinan]: the Ki is above 10000 nM.

As to `COCCN1CC[C@]23CCCC[C@H]2[C@H]1C(=O)c1ccc(O)cc13` [3-Hydroxy-10-keto-N-(2-methoxyethyl)morphinan], the inhibition constant Ki was above 10000 nM.

In turn, `O=C1c2ccc(O)cc2[C@@]23CCCC[C@H]2[C@@H]1N(Cc1ccc2ccccc2c1)CC3` [3-Hydroxy-10-keto-N-(2-naphthylmethyl)morphinan] showed a Ki above 10000 nM. For `CC(C)=CCN1CC[C@]23CCCC[C@H]2[C@H]1C(=O)c1ccc(O)cc13` [3-Hydroxy-10-keto-N-(3,3-dimethylallyl)morphinan], the Ki was determined as 1100 nM. Regarding `O=C1c2ccc(O)cc2[C@@]23CCCC[C@H]2[C@@H]1N(C[C@@H]1CCCO1)CC3` [3-Hydroxy-10-keto-N-(tetrahydrofuran-2-yl)methylmorphinan], the Ki was 1 nM. Compared with the last compound, the Ki is about 1100-fold lower. The same measure for `O=C1c2ccc(O)cc2[C@@]23CCCC[C@H]2[C@@H]1N(CC1CC1)CC3` [3-Hydroxy-10-keto-N-cyclopropylmethylmorphinan]: 150 nM; for `CN1CC[C@]23CCCC[C@H]2[C@H]1C(=O)c1ccc(O)cc13` [3-Hydroxy-10-keto-N-methylmorphinan]: 1200 nM; for `COc1ccc2c(c1)[C@@]13CCCC[C@H]1[C@H](NCC3)C2=O` [3-Methoxy normorphinan]: 16 nM. Compound `O=C1c2ccc(OCC3CCC3)cc2[C@@]23CCCC[C@H]2[C@@H]1N(CC1CCC1)CC3` [3-O-Cyclobutylmethyl-10-keto-N-cyclobutylmethylmorphinan] yielded a Ki above 10000 nM. `C#CCOc1ccc2c(c1)[C@@]13CCCC[C@H]1[C@@H](C2=O)N(CC#C)CC3` [3-O-Propargyl-10-keto-N-propargylmorphinan] displayed a Ki above 10000 nM. The compound `O=C1c2ccc(-c3nnn[nH]3)cc2[C@@]23CCCC[C@H]2[C@@H]1N(CC1CCC1)CC3` [3-Tetrazolo-10-keto-N-cyclobutylmethylmorphinan] displayed a Ki of 1800 nM.

Take `O=C1c2ccc(O)cc2[C@@]23CCCC[C@H]2[C@@H]1NCC3` [3-hydroxy-normorphinan]: the inhibitory constant (Ki) is above 10000 nM.

In general, Ki refers to the dissociation constant of the complex between target and ligand, obtained from inhibition or displacement.

For the origin of these results see BindingDB's records for doi:10.1021/jm0304156 (Harvard Medical School, 2003).
